Experimental findings from patent US8691757B2 (Bristol-Myers Squibb Company, priority 2011, dated 2014) are described below.

As usually defined, the EC50 is the midpoint of the concentration-response curve. Higher therefore signals weaker potency.

The test system of assay [1] is HCV genotype 1a (H77 strain) replicon in HUH-7 cells. The assay can be described thus: HCV replicon luciferase reporter assay, genotype 1a. Format: cell-based. Conditions: Hepatitis C virus, 72 h, HCV genotype 1a replicon, 3 days incubation, Renilla luciferase, range classes. An excerpt: (§1) An HCV replicon whole cell system was established as described by Lohmann V, Korner F, Koch J, Herian U, Theilmann L, Bartenschlager R., Science 285(5424):110-3 (1999) and modified to introduce a luciferase reporter, as first described by Krieger et al (Krieger N, Lohmann V, and Bartenschlager R, J. Virol. 75(10):4614-4624 (2001)). CDNA encoding a humanized form of the Renilla luciferase gene and a linker sequence fused directly to the 3′-end of the luciferase gene were introduced into the replicon construct using an Asc1 restriction site located in core, directly upstream of the neomycin marker gene. The adaptive mutation at position 1179 (serine to isoleucine) was also introduced (Blight K J, Kolykhalov, A A, Rice, C M, Science 290(5498):1972-1974). A stable cell line constitutively expressing this HCV replicon construct was generated by first linearizing plasmid DNAs with ScaI. RNA transcripts were synthesized in vitro using the T7 MegaScript transcription kit (Ambion, Austin, Tex.) according to manufacturer's directions. In vitro transcripts of the cDNA were transfected into the human hepatoma cell line, HUH-7. […] Resulting cell lines were characterized for positive and negative strand RNA production and protein production over time.
A stable HCV replicon luciferase reporter cell line representing the genotype 1a H77 strain (Yanagi M, Purcell R H, Emerson S U, et al. Transcripts from a single full-length cDNA clone of hepatitis C virus are infectious when directly transfected into the liver of a chimpanzee. Proc Natl Acad Sci USA 1997; 94(16):8738-8743) was generated as described previously for the genotype 1b (Con1) replicon luciferase cell line. The replicon construct was modified by introducing mutations were introduced into the genes encoding the NS3 helicase domain (proline replaced by leucine at position 1496) and NS5A (serine to isoleucine at position 2204) to improve replication in cell culture.
(§2) HCV replicon luciferase assays were developed to monitor the inhibitory effects of compounds described in the disclosure on HCV genotypes 1a and 1b viral replication. HUH-7 cells, constitutively expressing the HCV replicon, were grown in Dulbecco's Modified Eagle Media (DMEM) (Gibco-BRL) containing 10% Fetal calf serum (FCS) (Sigma) and 1 mg/mL G418 (Gibco-BRL). Compounds were serially diluted 3 folds in DMSO for a twenty-point titration and subsequently transferred to sterile 384-well tissue-culture treated plates (Corning cat #3571). The plates were then seeded with 50 μL of cells at a density of 3.0×10^3 cells/well in DMEM containing 4% FCS (final DMSO concentration at 0.5%). After 3 days incubation at 37° C., cells were analyzed for Renilla Luciferase activity using the EnduRen as substrate (Promega cat #E6485). The EnduRen substrate was diluted in DMEM and then added to the plates to a final concentration of 7.5 μM. The plates were incubated for 2 hrs at 37° C. and then read immediately for 30 seconds with Viewlux Imager (PerkinElmer) using a luminescence program. To assess cytotoxicity of compounds, CC50 values were generated by multiplexing the EnduRen-containing plates with Cell Titer-Blue (Promega, cat #G8082). Cell-Titer Blue (3 μL) was added to each well and incubated for 8 hrs at 37° C. The fluorescence signal from each well was read, with an excitation wavelength at 525/10 nm and an emission wavelength of 598/10 nm, using the Viewlux Imager.
(§3) The EC50 values for compounds were calculated by using a four-parameter logistic equation: y=A+((B−A)/(1+((C/x)^D))), where A and B denotes minimal and maximal % inhibition, respectively, C is the EC50, D is the hill slope and x represents compound concentration.

Assay [2] deals with HCV genotype 1b (Con1) replicon in HUH-7 cells. The assay can be described thus: HCV replicon luciferase reporter assay, genotype 1b. In kind it is cell-based. Conditions: Hepatitis C virus, 72 h, HCV genotype 1b replicon, 3 days incubation, Renilla luciferase, range classes.
From the text: as §1, with “time. […]” for “time.”
as §2, §3
(In general: Replicon systems follow genome replication, usually without infectious particles.)

In the case of `COc1ccc2c(O[C@@H]3C[C@H]4C(=O)N[C@]5(C(=O)NS(=O)(=O)C6(C)CC6)C[C@H]5/C=C\[C@H](C)CCC[C@@H](C)[C@H](NC(=O)OC(C)(C)C(F)(F)F)C(=O)N4C3)ncc(OC)c2c1` [Compound 14, 1,1,1-trifluoro-2-methylpropan-2-yl (2R,6S,7R,11R,13aS,14aR,16aS,Z)-2-(4,6-dimethoxyisoquinolin-1-yloxy)-7,11-dimethyl-14a-(1-methylcyclopropylsulfonylcarbamoyl)-5,16-dioxo-1,2,3,5,6,7,8,9,10,11,13a,14,14a,15,16,16a-hexadecahydrocyclopropa[e]pyrrolo[1,2-a][1,4]diazacyclopentadecin-6-ylcarbamate], the values for the half-maximal effective concentration (EC50) in assay [1] and in assay [2] were 2.01 to 5 nM and 1.01 to 2 nM, respectively.

Take `COc1cc2c(OC)cnc(O[C@@H]3C[C@H]4C(=O)N[C@]5(C(=O)NS(=O)(=O)C6(C)CC6)C[C@H]5/C=C\[C@H](C)CCC[C@@H](C)[C@H](NC(=O)OC(C)(C)C(F)(F)F)C(=O)N4C3)c2cc1F` [Compound 15, 1,1,1-trifluoro-2-methylpropan-2-yl (2R,6S,7R,11R,13aS,14aR,16aS,Z)-2-(7-fluoro-4,6-dimethoxyisoquinolin-1-yloxy)-7,11-dimethyl-14a-(1-methylcyclopropylsulfonylcarbamoyl)-5,16-dioxo-1,2,3,5,6,7,8,9,10,11,13a,14,14a,15,16,16a-hexadecahydrocyclopropa[e]pyrrolo[1,2-a][1,4]diazacyclopentadecin-6-ylcarbamate]: the EC50 in assay [1] and in assay [2] was 1.01 to 2 nM each time.

Consider `COc1ccc2ncc(O[C@@H]3C[C@H]4C(=O)N[C@]5(C(=O)NS(=O)(=O)C6(C)CC6)C[C@H]5/C=C\[C@H](C)CCC[C@@H](C)[C@H](NC(=O)OC(C)(C)C(F)(F)F)C(=O)N4C3)nc2c1` [Compound 17], for which the 50% effective concentration (EC50) in assay [1] and in assay [2] was 5.01 to 68 nM in each case.

Turning to `COc1ccc2ncc(O[C@@H]3C[C@H]4C(=O)N[C@]5(C(=O)NS(=O)(=O)C6(C)CC6)C[C@H]5/C=C\[C@@H](C)CCC[C@@H](C)[C@H](NC(=O)OC(C)(C)C(F)(F)F)C(=O)N4C3)nc2c1` [Compound 18], the EC50 in assay [1] and in assay [2] was 5.01 to 68 nM in each case.

In the case of `CCOc1cnc(O[C@@H]2C[C@H]3C(=O)N[C@]4(C(=O)NS(=O)(=O)C5(C)CC5)C[C@H]4/C=C\[C@H](C)CCC[C@@H](C)[C@H](NC(=O)OC(C)(C)C(F)(F)F)C(=O)N3C2)c2ccccc12` [Compound 19, 1,1,1-trifluoro-2-methylpropan-2-yl (2R,6S,7R,11R,13aS,14aR,16aS,Z)-2-(4-ethoxyisoquinolin-1-yloxy)-7,11-dimethyl-14a-(1-methylcyclopropylsulfonylcarbamoyl)-5,16-dioxo-1,2,3,5,6,7,8,9,10,11,13a,14,14a,15,16,16a-hexadecahydrocyclopropa[e]pyrrolo[1,2-a][1,4]diazacyclopentadecin-6-ylcarbamate], the concentration giving a half-maximal response (EC50) in assay [1] was in the range of 2.01 to 5 nM; in assay [2], 1.01 to 2 nM.

As for `COc1ccc2c(O[C@@H]3C[C@H]4C(=O)N[C@]5(C(=O)NS(=O)(=O)C6CC6)C[C@H]5/C=C\[C@H](C)CCC[C@@H](C)[C@H](NC(=O)OC(C)(C)C)C(=O)N4C3)ncc(OC)c2c1` [Compound 21, tert-butyl (2R,6S,7R,11R,13aS,14aR,16aS,Z)-14a-(cyclopropylsulfonylcarbamoyl)-2-(4,6-dimethoxyisoquinolin-1-yloxy)-7,11-dimethyl-5,16-dioxo-1,2,3,5,6,7,8,9,10,11,13a,14,14a,15,16,16a-hexadecahydrocyclopropa[e]pyrrolo[1,2-a][1,4]diazacyclopentadecin-6-ylcarbamate], the EC50 in assay [1] lay in the range of 1.01 to 2 nM; in assay [2], 0.2 to 1 nM.

With `COc1ccc2c(O[C@@H]3C[C@H]4C(=O)N[C@]5(C(=O)NS(=O)(=O)C6CC6)C[C@H]5/C=C\[C@H](C)CCC[C@@H](C)[C@H](NC(=O)OC(C)(C)C(F)(F)F)C(=O)N4C3)ncc(OC)c2c1` [Compound 22, 1,1,1-trifluoro-2-methylpropan-2-yl (2R,6S,7R,11R,13aS,14aR,16aS,Z)-14a-(cyclopropylsulfonylcarbamoyl)-2-(4,6-dimethoxyisoquinolin-1-yloxy)-7,11-dimethyl-5,16-dioxo-1,2,3,5,6,7,8,9,10,11,13a,14,14a,15,16,16a-hexadecahydrocyclopropa[e]pyrrolo[1,2-a][1,4]diazacyclopentadecin-6-ylcarbamate], the values for the 50% effective concentration (EC50) in assay [1] and in assay [2] were 1.01 to 2 nM and 0.2 to 1 nM, respectively.

Consider `COc1cnc(O[C@@H]2C[C@H]3C(=O)N[C@]4(C(=O)NS(=O)(=O)C5CC5)C[C@H]4/C=C\[C@H](C)CCC[C@@H](C)[C@H](NC(=O)OC(C)(C)C)C(=O)N3C2)c2cc(F)ccc12` [Compound 23, tert-butyl (2R,6S,7R,11R,13aS,14aR,16aS,Z)-14a-(cyclopropylsulfonylcarbamoyl)-2-(7-fluoro-4-methoxyisoquinolin-1-yloxy)-7,11-dimethyl-5,16-dioxo-1,2,3,5,6,7,8,9,10,11,13a,14,14a,15,16,16a-hexadecahydrocyclopropa[e]pyrrolo[1,2-a][1,4]diazacyclopentadecin-6-ylcarbamate], for which the EC50 in assay [1] and in assay [2] was 5.01 to 68 nM in each case.

Regarding `COc1cnc(O[C@@H]2C[C@H]3C(=O)N[C@]4(C(=O)NS(=O)(=O)C5CC5)C[C@H]4/C=C\[C@H](C)CCC[C@@H](C)[C@H](NC(=O)OC(C)(C)C(F)(F)F)C(=O)N3C2)c2cc(F)ccc12` [Compound 24, 1,1,1-trifluoro-2-methylpropan-2-yl (2R,6S,7R,11R,13aS,14aR,16aS,Z)-14a-(cyclopropylsulfonylcarbamoyl)-2-(7-fluoro-4-methoxyisoquinolin-1-yloxy)-7,11-dimethyl-5,16-dioxo-1,2,3,5,6,7,8,9,10,11,13a,14,14a,15,16,16a-hexadecahydrocyclopropa[e]pyrrolo[1,2-a][1,4]diazacyclopentadecin-6-ylcarbamate], the concentration for a half-maximal effect (EC50) in assay [1] and in assay [2] was 5.01 to 68 nM each time.

Regarding `COc1cnc(O[C@@H]2C[C@H]3C(=O)N[C@]4(C(=O)NS(=O)(=O)C5(C)CC5)C[C@H]4/C=C\[C@H](C)CCC[C@@H](C)[C@H](NC(=O)OC(C)(C)C(F)(F)F)C(=O)N3C2)c2cccc(Cl)c12` [Compound 25, 1,1,1-trifluoro-2-methylpropan-2-yl (2R,6S,7R,11R,13aS,14aR,16aS,Z)-2-(5-chloro-4-methoxyisoquinolin-1-yloxy)-7,11-dimethyl-14a-(1-methylcyclopropylsulfonylcarbamoyl)-5,16-dioxo-1,2,3,5,6,7,8,9,10,11,13a,14,14a,15,16,16a-hexadecahydrocyclopropa[e]pyrrolo[1,2-a][1,4]diazacyclopentadecin-6-ylcarbamate], the EC50 in assay [1] was 1.01 to 2 nM; in assay [2], 0.2 to 1 nM.
